Active and inactive are the calls of the source.
What was measured:
Format in all cases: functional, organism-based
Staphylococcus aureus = assay: Antibacterial activity against Staphylococcus aureus by paper disk diffusion method
[1] = tested on: Staphylococcus epidermidis; assay: Antibacterial activity against Staphylococcus epidermidis by paper disk diffusion method
Salmonella sp. = assay: Antibacterial activity against Salmonella sp. by paper disk diffusion method
Escherichia coli = assay: Antibacterial activity against Escherichia coli by paper disk diffusion method
Pseudomonas sp. = assay: Antibacterial activity against Pseudomonas sp. by paper disk diffusion method

Measured: Activity

C=C[C@@]1(C)CC[C@H]2[C@]3(C)C(=O)C[C@@H](Br)C(C)(C)[C@H]3[C@@H](O)C[C@]2(C)O1
inactive: Staphylococcus aureus | [1] | Salmonella sp. | Escherichia coli | Pseudomonas sp.

C=C[C@@]1(C)CC[C@H]2[C@]3(C)[C@@H](OC(C)=O)C[C@@H](Br)C(C)(C)[C@H]3[C@@H](O)C[C@]2(C)O1
inactive: Staphylococcus aureus | [1] | Salmonella sp. | Escherichia coli | Pseudomonas sp.

Reference: ChEMBL document CHEMBL1150582, “Brominated labdane-type diterpenoids from an Okinawan Laurencia sp” (J Nat Prod, 2002)
